# Source: ChEMBL document CHEMBL3120151, “Synthesis and in vivo evaluation of N-ethylamino-2-oxo-1,2-dihydro-quinoline-3-carboxamide for inhibition of intestinal tumorigenesis in APC(Min/+) mice” (Bioorg Med Chem Lett, 2014)
# The source made the active and inactive calls. The calls are words filed in the database; no cut-off is given here.
# Experiments:
# Mus musculus [1] = assay: Toxicity in APCMin/+ mouse model assessed as change in body weight at 150 ppm administered with diet from week 6 to week 18 relative to control; assay type: organism-based; settings: in vivo, po
# Cancer cell lines = assay: Antitumor activity against colon cancer cells in APCMin/+ mouse model assessed as inhibition of colon tumor formation at 150 ppm administered with diet from week 6 to week 18 relative to control; assay type: functional
# Mus musculus [2] = assay: Antitumor activity against intestinal polyp in APCMin/+ mouse model assessed as reduction in intestinal polyp formation with size >2 mm at 150 ppm administered with diet from week 6 to week 18 relative to control; assay type: functional
# Mus musculus [3] = assay: Antitumor activity against intestinal polyp in APCMin/+ mouse model at 150 ppm administered with diet from week 6 to week 18 relative to control; assay type: functional
structure (smiles),measurement,setting,value
NCCNC(=O)c1cc2ccccc2[nH]c1=O,Activity,Mus musculus [1],Non-toxic
same,Activity,Cancer cell lines,inactive
same,Activity,Mus musculus [2],Active
same,Activity,Mus musculus [3],inactive
